Test results from patent publication US20250311727A1, “SUBSTITUTED 2-AMINOAZINES AND SALTS THEREOF, AND USE THEREOF AS HERBICIDAL ACTIVE SUBSTANCES” (BAYER AKTIENGESELLSCHAFT, priority 2022, published 2025).

Assays:
Format in all cases: in vivo
Veronica persica [1] = experiment: Post-emergence herbicidal efficacy at 320 g/ha, VERPE; conditions: rated visually after about 3 weeks vs untreated controls, 100% = plants have died
Description: (§1) Unwanted plants/weeds: • ABUTH: Abutilon theophrasti • ALOMY: Alopecurus myosuroides • AMARE: Amaranthus retroflexus • DIGSA: Digitaria sanguinalis • ECHCG: Echinochloa crus-galli • KCHSC: Kochia scoparia • LOLRI: Lolium rigidum • MATIN: Matricaria inodora • POAAN: Poa annua • POLCO: Polygonum convolvulus • SETVI: Setaria viridis • STEME: Stellaria media • VERPE: Veronica persica • VIOTR: Viola tricolor A. Post-Emergence Herbicidal Efficacy at 320 g/ha
(§2) Seeds of mono- and dicotyledonous weed plants were placed in plastic pots in sandy loam soil (doubly sown with in each case one species of mono- or dicotyledonous weed plants per pot), covered with soil and cultivated in a greenhouse under controlled growth conditions. 2 to 3 weeks after sowing, the test plants were treated at the one-leaf stage. The compounds of the invention, formulated in the form of wettable powders (WP) or as emulsion concentrates (EC), were applied to the green parts of the plants as aqueous suspension or emulsion with addition of 0.5% additive at a water application rate equivalent to 600 litres per hectare. After the test plants had been kept in the greenhouse under optimum growth conditions for about 3 weeks, the activity of the preparations was rated visually in comparison to untreated controls.
(§3) For example, 100% activity=the plants have died, 0% activity=like control plants.
(§4) Tables A1 to A10 below show the effects of selected compounds of the general formula (I) according to Table 1 on various harmful plants and at an application rate corresponding to 320 g/ha, which were obtained by the trial procedure specified above.

Poa annua [2] = experiment: Pre-emergence herbicide efficacy at 320 g/ha, POAAN; conditions: scored visually after about 3 weeks vs untreated controls, 100% = plants have died
Description: as §1
(§5) Seeds of mono- and dicotyledonous weed plants were placed in plastic pots in sandy loam soil (doubly sown with one species each of mono- or dicotyledonous weed plants per pot) and covered with soil. The compounds of the invention, formulated in the form of wettable powders (WP) or as emulsion concentrates (EC), were then applied to the surface of the covering soil as aqueous suspension or emulsion with addition of 0.5% additive at a water application rate of 600 litres per hectare (converted). After the treatment, the pots were placed in a greenhouse and kept under good growth conditions for the test plants. After about 3 weeks, the efficacy of the preparations was scored visually in comparison with untreated controls as percentages.
as §3
(§6) Tables C1 to C12 below show the effects of selected compounds of the general formula (I) according to Table 1 on various harmful plants and at an application rate corresponding to 320 g/ha, which were obtained by the trial procedure specified above.

Digitaria sanguinalis [3] = experiment: Pre-emergence herbicide efficacy at 320 g/ha, DIGSA; conditions: scored visually after about 3 weeks vs untreated controls, 100% = plants have died
Description: as §1, §5, §3, §6

Abutilon theophrasti [4] = experiment: Post-emergence herbicidal efficacy at 320 g/ha, ABUTH; conditions: rated visually after about 3 weeks vs untreated controls, 100% = plants have died
Description: as §1, §2, §3, §4

Amaranthus retroflexus [5] = experiment: Post-emergence herbicidal efficacy at 320 g/ha, AMARE; conditions: rated visually after about 3 weeks vs untreated controls, 100% = plants have died
Description: as §1, §2, §3, §4

Echinochloa crus-galli [6] = experiment: Post-emergence herbicidal efficacy at 320 g/ha, ECHCG; conditions: rated visually after about 3 weeks vs untreated controls, 100% = plants have died
Description: as §1, §2, §3, §4

Stellaria media [7] = experiment: Post-emergence herbicidal efficacy at 320 g/ha, STEME; conditions: rated visually after about 3 weeks vs untreated controls, 100% = plants have died
Description: as §1, §2, §3, §4

Amaranthus retroflexus [8] = experiment: Pre-emergence herbicide efficacy at 320 g/ha, AMARE; conditions: scored visually after about 3 weeks vs untreated controls, 100% = plants have died
Description: as §1, §5, §3, §6

Setaria viridis [9] = experiment: Pre-emergence herbicide efficacy at 320 g/ha, SETVI; conditions: scored visually after about 3 weeks vs untreated controls, 100% = plants have died
Description: as §1, §5, §3, §6

Veronica persica [10] = experiment: Pre-emergence herbicide efficacy at 320 g/ha, VERPE; conditions: scored visually after about 3 weeks vs untreated controls, 100% = plants have died
Description: as §1, §5, §3, §6

Kochia scoparia [11] = experiment: Pre-emergence herbicide efficacy at 320 g/ha, KCHSC; conditions: scored visually after about 3 weeks vs untreated controls, 100% = plants have died
Description: as §1, §5, §3, §6

Matricaria inodora = experiment: Pre-emergence herbicide efficacy at 320 g/ha, MATIN; conditions: scored visually after about 3 weeks vs untreated controls, 100% = plants have died
Description: as §1, §5, §3, §6

Kochia scoparia [12] = experiment: Post-emergence herbicidal efficacy at 320 g/ha, KCHSC; conditions: rated visually after about 3 weeks vs untreated controls, 100% = plants have died
Description: as §1, §2, §3, §4

Poa annua [13] = experiment: Post-emergence herbicidal efficacy at 320 g/ha, POAAN; conditions: rated visually after about 3 weeks vs untreated controls, 100% = plants have died
Description: as §1, §2, §3, §4

Veronica persica [14] = experiment: Post-emergence herbicidal efficacy at 80 g/ha, VERPE; conditions: rated visually after about 3 weeks vs untreated controls, 100% = plants have died
Description: as §1
(§7) Seeds of monocotyledonous and dicotyledonous weeds and crop plants were placed in sandy loam in plastic or organic planting pots, covered with soil and cultivated in a greenhouse under controlled growth conditions. 2 to 3 weeks after sowing, the test plants were treated at the one-leaf stage. The compounds of the invention, formulated in the form of wettable powders (WP) or as emulsion concentrates (EC), were then sprayed onto the green parts of the plants as aqueous suspension or emulsion with addition of 0.5% additive at a water application rate of 600 l/ha (converted). After the test plants had been kept in the greenhouse under optimum growth conditions for about 3 weeks, the activity of the preparations was rated visually in comparison to untreated controls. For example, 100% activity=the plants have died, 0% activity=like control plants.
(§8) Tables B1 to B11 below show the effects of selected compounds of the general formula (I) according to Table 1 on various harmful plants and an application rate corresponding to 80 g/ha, which were obtained by the experimental procedure mentioned above.

Amaranthus retroflexus [15] = experiment: Post-emergence herbicidal efficacy at 80 g/ha, AMARE; conditions: rated visually after about 3 weeks vs untreated controls, 100% = plants have died
Description: as §1, §7, §8

Kochia scoparia [16] = experiment: Post-emergence herbicidal efficacy at 80 g/ha, KCHSC; conditions: rated visually after about 3 weeks vs untreated controls, 100% = plants have died
Description: as §1, §7, §8

Viola tricolor = experiment: Pre-emergence herbicide efficacy at 80 g/ha, VIOTR
Description: as §1
(§9) Seeds of monocotyledonous and dicotyledonous weed plants and crop plants were placed in plastic or organic planting pots and covered with soil. The compounds of the invention, formulated in the form of wettable powders (WP) or as emulsion concentrates (EC), were then applied to the surface of the covering soil as aqueous suspension or emulsion with addition of 0.5% additive at a water application rate equivalent to 600 l/ha. After the treatment, the pots were placed in a greenhouse and kept under good growth conditions for the test plants. After about 3 weeks, the efficacy of the preparations was scored visually in comparison with untreated controls as percentages. For example, 100% activity=the plants have died, 0% activity=like control plants.
(§10) Tables D1 to D12 below show the effects of selected compounds of the general formula (I) according to Table 1 on various harmful plants and an application rate corresponding to 80 g/ha, which were obtained by the experimental procedure mentioned above.

Stellaria media [17] = experiment: Pre-emergence herbicide efficacy at 320 g/ha, STEME; conditions: scored visually after about 3 weeks vs untreated controls, 100% = plants have died
Description: as §1, §5, §3, §6

Setaria viridis [18] = experiment: Pre-emergence herbicide efficacy at 80 g/ha, SETVI
Description: as §1, §9, §10

Amaranthus retroflexus [19] = experiment: Pre-emergence herbicide efficacy at 80 g/ha, AMARE; conditions: scored visually after about 3 weeks vs untreated controls, 100% = plants have died
Description: as §1, §9, §10

Echinochloa crus-galli [20] = experiment: Pre-emergence herbicide efficacy at 320 g/ha, ECHCG; conditions: scored visually after about 3 weeks vs untreated controls, 100% = plants have died
Description: as §1, §5, §3, §6

Abutilon theophrasti [21] = experiment: Pre-emergence herbicide efficacy at 320 g/ha, ABUTH; conditions: scored visually after about 3 weeks vs untreated controls, 100% = plants have died
Description: as §1, §5, §3, §6

Digitaria sanguinalis [22] = experiment: Post-emergence herbicidal efficacy at 320 g/ha, DIGSA; conditions: rated visually after about 3 weeks vs untreated controls, 100% = plants have died
Description: as §1, §2, §3, §4

| SMILES | Post-emergence efficacy at 320 g/ha against VERPE in % (Veronica persica [1]) [%] | Pre-emergence efficacy at 320 g/ha against POAAN in % (Poa annua [2]) [%] | Pre-emergence efficacy at 320 g/ha against DIGSA in % (Digitaria sanguinalis [3]) [%] | Post-emergence efficacy at 320 g/ha against ABUTH in % (Abutilon theophrasti [4]) [%] | Post-emergence efficacy at 320 g/ha against AMARE in % (Amaranthus retroflexus [5]) [%] | Post-emergence efficacy at 320 g/ha against STEME in % (Stellaria media [7]) [%] | Pre-emergence efficacy at 320 g/ha against AMARE in % (Amaranthus retroflexus [8]) [%] | Pre-emergence efficacy at 320 g/ha against SETVI in % (Setaria viridis [9]) [%] | Pre-emergence efficacy at 320 g/ha against VERPE in % (Veronica persica [10]) [%] | Pre-emergence efficacy at 320 g/ha against KCHSC in % (Kochia scoparia [11]) [%] | Post-emergence efficacy at 320 g/ha against KCHSC in % (Kochia scoparia [12]) [%] | Pre-emergence efficacy at 320 g/ha against STEME in % (Stellaria media [17]) [%] | other results |
| --- | --- | --- | --- | --- | --- | --- | --- | --- | --- | --- | --- | --- | --- |
| Cc1cccc(Nc2ncc(Cl)cn2)c1-n1cc(C(F)(F)F)cn1 [Example 1-49] | 90 | 100 | 90 | 90 | 90 | 90 | 100 | 100 | 100 |  |  |  | Post-emergence efficacy at 320 g/ha against ECHCG in % (Echinochloa crus-galli [6]): 90% |
| N#Cc1cccc(Nc2ncccn2)c1-n1cc(C(F)(F)F)cn1 [Example 1-40] | 90 |  |  |  | 90 |  | 100 |  |  | 90 |  |  | Pre-emergence efficacy at 320 g/ha against MATIN in % (Matricaria inodora): 90% |
| FC(F)(F)CCCCc1ccccc1Nc1ncc(Cl)cn1 [Example 1-2] | 100 |  |  |  | 100 |  |  |  |  |  | 90 |  | Post-emergence efficacy at 320 g/ha against POAAN in % (Poa annua [13]): 90% |
| O=C(CCCC(F)(F)F)c1cccnc1Nc1ncc(Cl)cn1 [Example 2-8] |  |  |  |  |  |  |  |  |  |  |  |  | Post-emergence efficacy at 80 g/ha against VERPE in % (Veronica persica [14]): 90%; Post-emergence efficacy at 80 g/ha against AMARE in % (Amaranthus retroflexus [15]): 100%; Post-emergence efficacy at 80 g/ha against KCHSC in % (Kochia scoparia [16]): 90% |
| Cc1cnn(-c2c(C#N)cccc2Nc2ncc(F)cn2)c1 [Example 1-67] | 100 | 90 |  | 90 | 100 | 100 | 100 | 100 | 90 | 100 | 90 | 100 | Pre-emergence efficacy against VIOTR (Viola tricolor): 90%; Pre-emergence efficacy against SETVI (Setaria viridis [18]): 100%; Post-emergence efficacy at 80 g/ha against VERPE in % (Veronica persica [14]): 90%; Pre-emergence efficacy at 80 g/ha against AMARE in % (Amaranthus retroflexus [19]): 100%; Post-emergence efficacy at 80 g/ha against AMARE in % (Amaranthus retroflexus [15]): 100%; Post-emergence efficacy at 80 g/ha against KCHSC in % (Kochia scoparia [16]): 90%; Pre-emergence efficacy at 320 g/ha against ECHCG in % (Echinochloa crus-galli [20]): 100% |
| Cc1cccc(Nc2ncc(F)cn2)c1-n1cc(C(F)(F)F)cn1 [Example 1-50] | 90 | 90 | 90 | 90 | 90 | 90 | 100 | 100 | 90 |  |  | 100 | Pre-emergence efficacy at 320 g/ha against ABUTH in % (Abutilon theophrasti [21]): 100%; Post-emergence efficacy at 320 g/ha against ECHCG in % (Echinochloa crus-galli [6]): 90%; Pre-emergence efficacy at 320 g/ha against ECHCG in % (Echinochloa crus-galli [20]): 100% |
| N#Cc1cnc(Nc2cccc(C#N)c2-n2cc(C(F)(F)F)cn2)nc1 [Example 1-42] | 90 |  | 100 |  | 100 |  | 90 | 90 |  | 90 | 90 | 90 | Pre-emergence efficacy at 320 g/ha against MATIN in % (Matricaria inodora): 100% |
| N#Cc1cccc(Nc2ncc(Cl)cn2)c1-c1ccc(F)c(F)c1 [Example 1-29] | 100 |  |  |  | 100 | 90 | 100 |  |  |  | 100 |  | Post-emergence efficacy at 320 g/ha against DIGSA in % (Digitaria sanguinalis [22]): 90% |
| N#Cc1cccc(Nc2ncc(F)cn2)c1-c1ccc(F)c(F)c1 [Example 1-30] | 100 | 90 | 100 |  | 100 | 100 | 100 | 100 | 100 | 90 | 100 | 100 | Pre-emergence efficacy at 320 g/ha against MATIN in % (Matricaria inodora): 90% |
| COc1cnc(Nc2cccc(F)c2-c2cc(C(F)F)no2)nc1 [Example 1-37] | 90 | 100 | 100 | 100 | 90 |  | 100 | 100 |  | 90 | 90 | 100 | Pre-emergence efficacy at 320 g/ha against ABUTH in % (Abutilon theophrasti [21]): 90% |
| Fc1cccc(Nc2ncccn2)c1-c1cc(C(F)F)no1 [Example 1-35] | 100 | 100 | 90 | 100 | 100 | 100 | 100 | 90 | 90 | 100 | 100 | 100 | Pre-emergence efficacy at 320 g/ha against ABUTH in % (Abutilon theophrasti [21]): 100% |
